Reference: patent US12472140B2, “Composition and method for transdermal delivery of cannabidiol (CBD) and tetrahydrocannabinol (THC)” (Ovation Science Inc., priority 2020, dated 2025)

Assays:
[1] = Six-hour Franz Cell study of skin penetration by CBD and THC; details: for penetration of CBD relative to THC: at 6 hours
Solubility = details: polyvinylpyrrolidone polymers with C16, C20, C30 side chains
[2] = cited from earlier work
[3] = Release of CBD and THC from the composition, effect of adding surfactant; assay type: physicochemical; details: for ratio of release of CBD and THC: numerically THC/CBD
Description: Addition of surfactant can assist in release of CBD and THC from the composition.

[4] = oral doses of 15-20 mg; cited from earlier work
[5] = Example 1, penetrant increased from 1% to 3%
[6] = Example 3, terpene penetrant increased from 1% to 3%

Compound | penetration of CBD relative to THC ([1]; Example 1, 1:1 CBD:THC formulation) | penetration [1, 5] | penetration of CBD relative to THC ([1]; Example 3, 1:1 CBD:THC formulation) | actual (penetration) weight ratio of CBD:THC ([1]; Example 3, formulated weight ratio 1:1 CBD:THC) | penetration [1, 6] | solubility in hydrophobic polymer delivery system / polymer complexes (Solubility) | solubility in aqueous buffers [2] | solubility in organic solvents [2] | release from the composition ([3]; after addition of surfactant) | release from the composition ([3]; before addition of surfactant) | ratio of release of CBD and THC ([3]; after addition of surfactant) | ratio of release of CBD and THC ([3]; before addition of surfactant) | effect on cancer pain [4]
C=C(C)[C@@H]1CCC(C)=C[C@H]1c1c(O)cc(CCCCC)cc1O [CBD, cannabidiol] | ~4 times | 5.8% | ~2 times | 1.98 | 5.8% | readily soluble | sparingly soluble | readily soluble | 30.2% | 4.3% |  |  | 
CCCCCc1cc(O)c2c(c1)OC(C)(C)[C@H]1CCC(C)=C[C@H]21 [THC, Δ^9-tetrahydrocannabinol] |  | 3.2% |  |  | 3.2% | readily soluble | sparingly soluble | readily soluble | 21.7% | 3% | 0.72 | 0.7 | decreased cancer pain comparable to 120 mg of codeine
